Reference: patent US20230090683A1, “ASPACYTARABINE PHARMACEUTICAL COMPOSITIONS AND USES THEREOF” (Biosight Ltd., priority 2020, published 2023)
Converted amounts (≈) assume the structure as drawn. Like-named read-outs stand apart in the source and are kept apart here.

Experiments:
Assay type in all cases: physicochemical
[1] = Solubility and stability of aspacytarabine free base and acid salt in aqueous media
Source text: Thus, there is an unmet need for a stable and highly concentrated solutions and/or high dosage composition comprising aspacytarabine.

[2] = Solubility of aspacytarabine in different solubilizers/stabilizers (Table 1, FIG. 1); details: thermodynamic from solid, read-out: Conc (solubility of aspacytarabine); for solubility at 24 h: after 24 hours, room temperature
Description: FIG. 1 depicts solubility (mg/ml) of aspacytarabine with (i) Tween 20, 1% (non-linear polymer); (ii) PEG 400 (neat); (iii) an aqueous solution including 1% w/w poloxamer; (iv) an aqueous solution including 2% w/w poloxamer; and (v) an aqueous solution including 1% w/w poloxamer and 5% w/w PVP, where “P188” is poloxamer 188 and “PVP” is polyvinylpyrrolidone. The solubility was measured after 24 hours in room temperature at pH 4.5.
Aspacytarabine or its hydrochloride salt was stirred with various ingredients in various conditions (separate experiment for each component/condition) in order to prepare compositions thereof. […] Among components tested were organic solvents (e.g. glycerol, ethanol, polyethylene glycol (PEG, e.g. PEG 400), dimethylacetamide and propylene glycol) and polymers (e.g. Polyoxyethylated 12-hydroxystearic acid, Polyethylene glycol, sorbitan monolaurate, polyvinylpyrrolidone (PVP), triblock copolymer of polyethylene/propylene oxide (poloxamer) and cyclodextrin and/or derivatives thereof). […] See comparative results in FIG. 1 and Table 1:
Compositions 1, 2a-2d, 3 as described in Example 2 were dissolved in an aqueous solution at room temperature. Composition 4 is aspacytarabine in neat PEG 400.

[3] = Solubility and stability of aspacytarabine hydrochloride salt in 3% aqueous solutions of stabilizers/solubilizers after 24 hours (Table 2)
Description: In another study, aspacytarabine hydrochloride salt was added to 3% aqueous solution of different stabilizers/solubilizers (See Table 2) at pH˜5.

[4] = hydrochloride salt in 3% aqueous PVP 10 kDa + PEG 300, pH~5, room temperature
[5] = hydrochloride salt in 3% aqueous Poloxamer 188 + PEG 300, pH~5, room temperature
[6] = hydrochloride salt in 3% aqueous Poloxamer 188, pH~5, room temperature
[7] = hydrochloride salt, control without stabilizers and/or solubilizer, pH~5, room temperature

- solubility in aqueous media [1]: low solubility
- solubility at 24 h ([2]; 1% Tween 20, aqueous with cosolvent or surfactant or cyclodextrin, solubilizer/stabilizer Tween 20 (1%, non-linear polymer), pH 4.5): 14.3 mg/mL (≈ 40 mM)
- solubility ([2]; Kolliphor ELP as solubilizer/stabilizer, aqueous with cosolvent or surfactant or cyclodextrin, solubilizer/stabilizer Kolliphor ELP): 17.8 mg/mL (≈ 49.7 mM)
- solubility ([2]; Solutol HS15 as solubilizer/stabilizer, aqueous with cosolvent or surfactant or cyclodextrin, solubilizer/stabilizer Solutol HS15): 16.1 mg/mL (≈ 45.1 mM)
- solubility at 24 h ([2]; aqueous solution with 1% w/w poloxamer 188, aqueous with cosolvent or surfactant or cyclodextrin, solubilizer/stabilizer Poloxamer 1% w/w aqueous solution, pH 4.5): 95.3 mg/mL (≈ 266 mM)
- solubility at 24 h ([2]; aqueous solution with 1% w/w poloxamer 188 and 5% w/w PVP, aqueous with cosolvent or surfactant or cyclodextrin, solubilizer/stabilizer Poloxamer 1% + 5% PVP aqueous solution, pH 4.5): 90.9 mg/mL
- solubility at 24 h ([2]; aqueous solution with 2% w/w poloxamer 188, aqueous with cosolvent or surfactant or cyclodextrin, solubilizer/stabilizer Poloxamer 2% w/w aqueous solution, pH 4.5): 94.9 mg/mL (≈ 265 mM)
- solubility at 24 h ([2]; neat PEG 400, pH 4.5, organic solvent or mixture, solubilizer/stabilizer PEG400 (neat)): 50.5 mg/mL (≈ 141 mM)
- Concentration after 24 h [3, 4]: 91600 ± 8400 µg/mL
- Initial appearance [3, 4]: Clear
- Initial concentration [3, 4]: 87.1 ± 0.0 mg/mL
- Appearance after 24 h [3, 5]: Clear
- Concentration after 24 h [3, 5]: 80600 ± 2200 µg/mL
- Initial appearance [3, 5]: Clear
- Initial concentration [3, 5]: 87.3 ± 0.4 mg/mL
- Appearance after 24 h [3, 6]: Clear
- Concentration after 24 h [3, 6]: 81800 ± 3200 µg/mL
- Initial appearance [3, 6]: Clear
- Initial concentration [3, 6]: 87.3 ± 0.2 mg/mL
- Concentration after 24 h [3, 7]: 17200 ± 400 µg/mL
- Initial appearance [3, 7]: Clear
- Initial concentration [3, 7]: 86.6 ± 1.1 mg/mL
SMILES: N[C@@H](CC(=O)Nc1ccn([C@@H]2O[C@H](CO)[C@@H](O)[C@@H]2O)c(=O)n1)C(=O)O [aspacytarabine, (S)-2-amino-4-((1-((2R,3S,4S,5R)-3,4-dihydroxy-5-(hydroxymethyl)tetrahydrofuran-2-yl)-2-oxo-1,2-dihydropyrimidin-4-yl)amino)-4-oxobutanoic acid]
